These are literature values, as cited in PMC7657096 (Medical Mycology, 2020).

Several values for one entry are separate records, joined by “and”; a condition that tells them apart may be missing. Equal entries are not always repeated. Where two headings read alike, the source gives them in different places.

The subject of data set [1] is onychomycosis. The conditions noted are these: after 10 months following weekly application for 9 months.
The test system of data set [2] is onychomycosis. The conditions noted are these: after 48 weeks following daily application for 48 weeks; two values.
Data set [3] has as its system onychomycosis. The conditions noted are these: after 12 or 24 weeks of oral terbinafine treatment.
Data set [4] deals with onychomycosis. The conditions noted are these: topical solution applied daily for either 24 or 48 weeks.
For data set [5], the system named is onychomycosis. The conditions noted are these: topical, applied for 52 weeks; two values.
Data set [6] relates to onychomycosis.

With `CCC(C)(C)c1ccc(CC(C)CN2C[C@@H](C)O[C@@H](C)C2)cc1` (stereo partly shown) [amorolfine], the “mycological cure (negative culture and negative microscopy)” value with onychomycosis [1] is recorded as 8%.

Take `Cc1cc(C2CCCCC2)n(O)c(=O)c1` [ciclopirox]: in the data set with onychomycosis [2], the “mycological cure (negative culture and negative microscopy)” value is 29% and 36%.

Regarding `CN(C/C=C/C#CC(C)(C)C)Cc1cccc2ccccc12` [terbinafine], the “trial participants with negative culture after 24 weeks (168 days)” value in the data set on onychomycosis [3] was “approximately 80%”. The mycological cure in the data set on onychomycosis [4] is 12.7–18.8%.

On to `C=C1CCN([C@H](C)[C@](O)(Cn2cncn2)c2ccc(F)cc2F)CC1` [efinaconazole], for which the mycological cure with onychomycosis [5] is 53.4% and 55.2%.

For `OB1OCc2cc(F)ccc21` [tavaborole], the mycological cure with onychomycosis [6] (topical, applied for 52 weeks) is 31.1%. For the same compound, the negative culture in the data set with onychomycosis [6] (two phase III studies, daily topical treatment for 48 weeks, ref (57)) is 87.0% and 85.4%.
